Literature values as cited in PMC11859340, “The Therapeutic Potential of Spirooxindoles in Cancer: A Focus on p53–MDM2 Modulation” (Pharmaceuticals, 2025).
Where two headings read alike, the source gives them in different places.

Tests used:
MDA-MB231 (breast) = test system: MDA-MB231 (breast); set-up: method as in PMID 34970530; details: MTT; read-out: IC50 against MDA-MB231
MCF7 (breast) [1] = test system: MCF7 (breast); set-up: method as in PMID 26256638; details: MTT; read-out: IC50 against MCF7
HepG-2 (liver) = test system: HepG-2 (liver); set-up: method as in PMID 34970530; details: MTT; read-out: IC50 against HepG-2
Caco-2 (colon) = test system: Caco-2 (colon); set-up: method as in PMID 34970530; details: MTT; read-out: IC50 against Caco-2
MDM2 [2] = test system: MDM2; set-up: method as in PMID 37175323; details: induction of protein degradation
p53 = test system: p53; set-up: method as in PMID 37175323; details: 22Rv1 and LNCaP, dose-dependent
LNCaP (p53+) = test system: LNCaP (p53+); set-up: method as in PMID 30735387; details: MTT; read-out: IC50 against LNCaP (p53+)
PC-3 (p53−) = test system: PC-3 (p53−); set-up: method as in PMID 30735387; details: MTT; read-out: IC50 against PC-3 (p53−)
HEK-293 = test system: HEK-293; set-up: method as in PMID 25618595; details: human kidney normal cell line; read-out: IC50 against HEK-293
MD-MB-231 = test system: MD-MB-231; set-up: method as in PMID 25618595; details: MTT; read-out: IC50 against MD-MB-231
MCF7 = test system: MCF7; set-up: method as in PMID 25618595; details: MTT; read-out: IC50 against MCF7
VERO = test system: VERO; set-up: method as in PMID 25618595; details: monkey kidney normal cell line; read-out: IC50 against VERO
tumor growth = test system: tumor growth; set-up: method as in PMID 25618595; details: 20 mg/kg body weight over 14 days
PC3 = test system: PC3; set-up: method as in doi:10.3390/separations10040225; details: MTT; read-out: IC50 against PC3
MDM2 [3] = biological target: MDM2; set-up: method as in doi:10.3390/separations10040225; details: MST; read-out: KD, MST binding affinity for MDM2
MDA-MB-231 = test system: MDA-MB-231; set-up: method as in doi:10.3390/separations10040225; details: MTT; read-out: IC50 against MDA-MB-231
HCT116 (colon) = test system: HCT116 (colon); set-up: method as in PMID 28797774; details: CCK-8; read-out: IC50 against HCT116
MCF7 (breast) [4] = test system: MCF7 (breast); set-up: method as in PMID 28797774; details: CCK-8; read-out: IC50 against MCF7
A549 (lung) = test system: A549 (lung); set-up: method as in PMID 28797774; details: CCK-8; read-out: IC50 against A549
[5] = test system: osteosarcoma, acute leukemia, prostate, colon, and dedifferentiated liposarcoma cancers; details: mouse xenograft models
HCT116^−/− = test system: HCT116^−/−; set-up: method as in PMID 34946727; details: MTT; read-out: CC50 against HCT116^−/−
HCT116^+/+ = test system: HCT116^+/+; set-up: method as in PMID 34946727; details: MTT; read-out: CC50 against HCT116^+/+

In the case of O=c1[nH]cc(F)c(=O)[nH]1 [5-fluorouracil], the IC50 (MDA-MB231 (breast)) is given as 7.05 ± 0.204 µM, the IC50 (MCF7 (breast) [1]) is given as 10.5 ± 1.6 µM and the IC50 (HepG-2 (liver)) is given as 4.83 ± 0.296 µM. The IC50 (Caco-2 (colon)) was 1.05 ± 0.156 µM.
In the case of COc1cc(C(N)=O)ccc1NC(=O)[C@H]1[C@H](c2cccc(Cl)c2F)C2(C(=O)Nc3cc(Cl)ccc32)[C@H](CC(C)(C)C)N1C(=O)OCCOCCOCCOCCOC(=O)N1[C@@H](CC(C)(C)C)[C@@]2(C(=O)Nc3cc(Cl)ccc32)[C@@H](c2cccc(Cl)c2F)[C@@H]1C(=O)Nc1ccc(C(N)=O)cc1OC (stereo partly shown) [compound 44], the MDM2 level (MDM2 [2]) is listed as “Downregulation of MDM2” and the p53 levels (p53) is listed as “increase in p53 levels”.
For COC(=O)C1([N+](=O)[O-])C[C@@H](c2ccccc2)N(c2ccccc2)[C@]12C(=O)Nc1ccccc12 (stereo partly shown), the IC50 (LNCaP (p53+)) is listed as 6.2 to 7.9 µM and the IC50 (PC-3 (p53−)) is listed as 6.8 to 8.5 µM.
In the case of O=C(c1ccc(OCCN2CCCCC2)cc1)C1[C@H](c2ccccc2)[C@@H](c2ccccc2)NC12C(=O)Nc1ccc(Cl)cc12 (stereo partly shown), the IC50 (HEK-293) is given as greater than 50 µM, the IC50 (MD-MB-231) is given as 3.7 µM and the IC50 (MCF7) is given as 6.5 µM. For the same compound, the IC50 (VERO) was greater than 50 µM and the “tumor growth compared to the untreated control group” value (tumor growth) was “reduction in tumor growth”.
For O=C(c1nc2ccccc2[nH]1)[C@H]1[C@H](c2ccc(Cl)cc2)C2CC3CCCCC3N2[C@]12C(=O)Nc1ccc(Cl)cc12 (stereo partly shown) [39 (R = 4-ClC6H4)], the IC50 (PC3) is given as 4.574 ± 0.011 µM, the Kd (MDM2 [3]) is given as 2.38 µM and the IC50 (MDA-MB-231) is given as 4.76 ± 0.069 µM.
In the case of CCN(CC)c1ccc(N2C[C@H]3[C@@H](CS[C@]4(C(=O)Nc5cccc(Br)c54)[C@@H]3c3ccc(Br)cc3)CC2=O)cc1 [143 (R = 4-(4-diethylamino)C6H4)], the IC50 (HCT116 (colon)) is listed as 1.8 ± 0.5 µM, the IC50 (MCF7 (breast) [4]) is listed as 2.4 ± 0.1 µM and the IC50 (A549 (lung)) is listed as 2.9 ± 0.2 µM.
In the case of CC(C)(C)C[C@@H]1N[C@@H](C(=O)N[C@H]2CC[C@H](O)CC2)[C@H](c2cccc(Cl)c2F)[C@]12C(=O)Nc1cc(Cl)ccc12 [SAR405838], the cancer inhibition [5] is given as “recognizable or complete cancer inhibition”.
For COc1ccc(N2C(=O)[C@@]3(CN(C)C[C@@]34C(=O)Nc3ccc(Cl)cc34)NC2=S)cc1 [84 (X = S, R = Cl, R’ = 4-MeOC6H4)], the CC50 (HCT116^−/−) is listed as 2.35 ± 0.95 µM and the CC50 (HCT116^+/+) is listed as 1.95 ± 0.43 µM.
